Results reported in patent US7258861B2, “TNF-derived peptides for use in treating oedema” (Innogenetics N.V., priority 2001, dated 2007).
“And” between values parts separate entries of the source, which are not always exact repeats. Identical values can stand only once.

How the values were obtained:
[1] = tested on: ex vivo instilled rat lung; assay: Ex vivo rat flooded lung, model of hydrostatic edema
Experimental: In this model edema is induced by instillating 2 ml of 0.9% NaCl solution intratracheally. Alternatively, edema formation can be modulated by varying the height of the venous outflow and the perfusion buffer containing reservoir, or alternatively by varying the time the lung is exposed to the elevated pressure. […] The clearance of alveolar fluid from the lung is calculated by means of measuring the concentration of HSA, which is added to the instillate over time. Alternatively, the over time weight loss as a measure of edema resorption (high weight loss is high liquid clearance), of the artificially instilled lung can be measured. The lung tidal volume, compliance and weight are monitored continuously during the experiment. At the end of the experiment bronchoalveolar fluid and supernatant of lung homogenate is taken for measurement of inflammatory mediators.
The lungs of female Wistar rats (weight 200–250 g; Harlan-Winkelmann, Borchen, Germany) are prepared after terminal i.p. anesthesia by 160 mg/kg pentobarbitural —Na (Merial Ltd, Halbermoos, Germany) and perfused as described by Uhlig and Wolin (1994), and by Uhlig and von Bethmann (1997). All equipment is obtained from Hugo Sachs Electronics (March-Hugstetten, Germany). […] As perfusion medium, a Krebs-Henseleit buffer (38° C.) containing 2% bovine serum albumin (Fraction V, Scrva. Heidelberg, Germany), 0.1% glucose (Riedel-de-Haën Inc., Seelze, Germany), and 0.3% HEPES (ICN Biomedicals Inc., Ohio, USA) is used. The total amount of recirculating buffer is 100 ml. The lungs are suspended by the trachea and ventilated by negative pressure ventilation (inspiratory pressure: −7 cm H2O, expiratory pressure: −2 cm H2O) with 80 breaths per minute resulting in a tidal volume of approximately 2 ml. Every 5 minutes, a deep inspiratory breath (−20 cm H2O) is performed. Artificial thorax chamber pressure is measured with a differential pressure transducer (Validyne DP 45-14), and an air flow velocity with a pneumotachograh tube (Fleisch Type 0000) connected to a differential pressure transducer (Validyne DP 45-15). The perfusate flow (Narcomatic RT-500) and the arterial and venous pressure (Statham P23BB) are continuously monitored. The pH of the perfusate before entering the lung is kept at 7.25 to 7.35 by automatic bubbling of the buffer with CO2 as soon as the pH exceeds this range. A weight transducer is integrated into the chamber lid which allows the continuous assessment of lung weight. Data are recorded on a Pentium II computer using the Mathlab Sofware package (Mathworks, Inc., Nattick Mass., USA). For lung mechanics, the data are analyzed by applying the following formula: P=1/C*VT+RLdV/dT
Where P is chamber pressure, C pulmonary compliance, VT tidal volume, and RL airway resistance. All lung physiology parameters were normalized to time point 0, i.e. after the end of the preconditioning perfusion of 40 minutes.

[2] = tested on: resident peritoneal macrophages; assay: Whole-cell patch clamp in resident peritoneal macrophages; format: cell-based, mouse; settings: 30 min preincubation, acidic pH
Description: Animals, cells and reagents. Male CBA/J or C57BL/6 mice, as well as male TNFR ½^0/0 C57BL/6 mice deficient in TNF receptors (Bruce et al., 1996) provided by H. Bluethmann, F. Hoffmann-La Roche, Basel, Switzerland, were used at the age of 8–10 weeks. Their care was in accordance with institutional guidelines. Lung microvascular endothelial cells were isolated from CBA/J mice and characterized as described (Jackson et al., 1990) using magnetic beads (Dynabeads M-450, Dynal, Oslo, Norway), covalently bound to a purified rat-anti-mouse PECAM-1 monoclonal antibody (donated by B. Imhof, University of Geneva). Microvascular lung endothelial cells were resuspended in DMEM containing 2 mM L-glutamine, 100 U/ml penicillin, […], 20% FCS, 40 U/ml heparin and […] endothelial cell growth supplement (Brunschwig Chemie, Basel, Switzerland). For patch clamp experiments, cells were plated onto 35×10 mm easy grip Petri dishes (Beckton Dickinson, Plymouth, UK), pre-coated with 0.2% gelatin (Sigma, Buchs, Switzerland). Resident peritoneal macrophages, isolated in ice cold RPMI containing antibiotics and 10 U/ml Heparin, were left to adhere onto 35×10 mm easy grip Petri dishes for 4 h, after which the non-adherent cells were removed. […]
Electrophysiology. […] Currents were recorded with an Axopatch-200A amplifier (Axon Instrument Inc, Foster City, Calif., USA), low pass-filtered at 1 kHz. […]

isolated rat lungs = assay: Isolated blood perfused flooded rat lung (weight, lung mechanics, PV curves, histology)
Experimental: Rats. For the ex vivo experiments, 31 Sprague-Dawley rats (300 to 350 g) were tracheotomized and mechanically ventilated (40% oxygen in air) under isoflurane anesthesia. The experimental protocol was reviewed and approved by the Ethics Committee for Animal Research and by the Veterinary Office of our institution. The femoral vessels were cannulated for blood sampling, fluid replacement, and continuous arterial blood pressure monitoring. Following anticoagulation (1.5 IU/g i.v. heparin), 20 ml of blood were withdrawn and replaced by an equal volume of dextran-40 (Macrodex 10% in normosaline) to serve as priming volume for the isolated perfusion circuit. The heart-lung block was prepared as described by Ma et al., 2000, weighed and assigned to one of four groups. […] The lungs were suspended, mechanically ventilated, and perfused at constant pressure with autologous blood as described by Ma et al., 2000.
An inspiratory and expiratory quasi-static pressure-volume (PV) curve was performed at the end of the 2-hour reperfusion period by inflating and then deflating the lungs at a constant rate (0.3 ml/sec) using an automated infusion pump. A sigh was applied in all groups every 15 minutes to minimize atelectasis formation. The blood pH was maintained between 7.3 and 7.5 and, if necessary, corrected with sodium bicarbonate 8.4% or a change of the inspired CO2 as required by the blood gas analysis. Every 30 minutes, a blood sample was collected for blood gas analysis as well as for hematocrit and electrolyte concentration.
Inclusion criteria. Immediately following the start of reperfusion, the preparation had to fulfill three technical inclusion criteria: • 1) left atrial pressure (LAP) 5-10 mmHg; • 2) peak airway pressure (AWP) <15 cmH2O; and • 3) pulmonary blood flow (PBF) >10 ml/min. […] The included lungs were then flooded with gentle intratracheal instillation of 2 ml normal saline and the recorded variables measured for 2 subsequent hours.
Histological analysis. Random lung samples were fixed for light and electron microscopy and analyzed by pathologists blinded to the lung's protocol group assignment.

How did the “clearing alveolar fluid content ex vivo” value ([1]; after intratracheal instillation, summary in words) turn out when “TNF: E.coli-derived recombinant murine TNF” was run?
The value was “capable of clearing alveolar fluid content”.

What about the “Weight loss of ex vivo instilled rat lung over 80 min” value ([1]; recombinant TNF 5 μg/lung alone, listed as mTNF) of the same substance?
The value was 589 mg and 722 mg and 584 mg.

And the whole cell current [2]?
Its whole cell current is “significant increase in outward”.

What about the “lung weight change over time after alveolar flooding” value (isolated rat lungs; 2 hours reperfusion after 2 ml saline, TNF 5 μg, peptides 1 mg) of the same substance?
The value was “no significant change in weight over time”.

And the “lung mechanics (peak AWP, Cdyn, Raw) after alveolar flooding” value (isolated rat lungs; 2 hours reperfusion, TNF 5 μg, peptides 1 mg)?
The value was “no difference from the saline-treated group”.

What about the “lower inflection point of inspiratory quasi-static PV curve” value (isolated rat lungs; end of 2-hour reperfusion, TNF 5 μg, peptide 1 mg) of the same substance?
Its value is 20.0±0.8 cmH2O.

And the “leukocyte infiltration (lung histology)” value (isolated rat lungs; hematoxylin-stained slices, compared to controls)?
The value was “significantly increased leukocyte infiltration”.

What about the “endothelial flaps and epithelial blebs (electron microscopy)” value (isolated rat lungs; pretreated lungs after flooding and 2 hours reperfusion) of the same substance?
Its value is “prominent numerous endothelial flaps”.
